# Reference: patent US20250144067A1, “PERSONALIZED STARVATION THERAPY FOR CANCER” (Faeth Therapeutics, Inc., priority 2021, published 2025)
# Structures can show the parent of a compound that is named as a salt.
# Columns and labels:
# [1] = system: NCI-H292 lung cancer cells; experiment: FDA drug screening, complete media vs cholesterol-free media without statin (TABLE 1); format: cell-based, human
# [2] = system: NCI-H292 lung cancer cells; experiment: FDA drug screening, complete media vs cholesterol-free media with simvastatin (TABLE 2); format: cell-based, human; settings: for Cholesterol-free media + simvastatin (0.04 μM) / Complete Media: NCI-H292 cells
# [3] = Complete minus Cholesterol-free, >0 enhanced anti-cancer activity, about 0 neutral, <0 antagonist
# [4] = NCI-H292 cells, cholesterol-free media without statin
# [5] = FDA library drug in cholesterol-free media with simvastatin 0.04 μM
# [6] = FDA library drug in complete media
# [7] = complete media vs cholesterol-free media + simvastatin (0.04 μM), >0 enhanced anti-cancer activity, about 0 neutral, <0 antagonist
# [8] = Complete minus Cholesterol-free, greater than 0 enhanced anti-cancer activity, about 0 neutral, below 0 antagonists
# [9] = NCI-H292 cells in cholesterol-free media without statin
# [10] = NCI-H292 cells in complete media
# [11] = cholesterol-free media with simvastatin 0.04 μM, cell growth value in FDA drug screen
# [12] = complete media, cell growth value in FDA drug screen
# [13] = complete media minus cholesterol-free media + simvastatin, >0 enhanced anti-cancer activity, about 0 neutral, <0 antagonist
# [14] = complete vs cholesterol-free media, greater than 0 enhanced anti-cancer activity, about 0 neutral, below 0 antagonists
# [15] = FDA drug library screen, cholesterol-free media with simvastatin 0.04 μM
# [16] = FDA drug library screen, complete media
# [17] = Complete minus Cholesterol-free, greater than 0 enhanced anti-cancer activity, about 0 neutral, below 0 antagonist
# [18] = NCI-H292 cells, FDA drug library screen, cholesterol-free media without statin
# [19] = NCI-H292 cells, FDA drug library screen, complete media
# [20] = NCI-H292 cells, cholesterol-free media without statin, FDA drug library screen
# [21] = NCI-H292 cells, complete media, FDA drug library screen
# [22] = complete vs cholesterol-free media, >0 enhanced anti-cancer activity, about 0 neutral, <0 antagonist
# [23] = cholesterol-free media with simvastatin 0.04 μM, FDA drug library screen (TABLE 2)
# [24] = complete media, FDA drug library screen (TABLE 2)
# [25] = complete media minus cholesterol-free media + simvastatin (0.04 μM), >0 enhanced anti-cancer activity, about 0 neutral, <0 antagonist
# [26] = drug in cholesterol-free media with simvastatin 0.04 μM
# [27] = Complete minus Cholesterol-free, […]
# [28] = complete media minus cholesterol-free media + simvastatin, […]
# [29] = complete media vs cholesterol-free media + simvastatin (0.04 μM), […]
compound,measurement,setting,value
CCc1cc2c(cc1N1CCC(N3CCOCC3)CC1)C(C)(C)c1[nH]c3cc(C#N)ccc3c1C2=O [Alectinib],Difference,[1]; [3],−0.21
same,Cholesterol-free,[1]; [4],1.125
same,Complete,"[1]; NCI-H292 cells, complete media",0.9146
same,Cholesterol-free media + simvastatin (0.04 μM),[2]; [5],1.385
same,Complete Media,[2]; [6],1.02
same,Difference,[2]; [7],−0.37
Cc1ccc2c(c1)c1c(n2CCc2ccc(C)nc2)CCN(C)C1 [Latrepirdine (dihydrochloride)],Difference,[1]; [8],−0.58
same,Cholesterol-free,[1]; [9],1.66
same,Complete,[1]; [10],1.083
same,Cholesterol-free media + simvastatin (0.04 μM),[2]; [11],1.036
same,Complete Media,[2]; [12],1.07
same,Difference,[2]; [13],0.03
CC(=O)[C@H]1CC[C@H]2[C@@H]3CCC4=CC(=O)CC[C@]4(C)[C@H]3CC[C@]12C [Progesterone],Cholesterol-free,[1]; [4],1.057
same,Complete,"[1]; NCI-H292 cells, complete media",0.6641
same,Difference,[1]; [14],−0.39
same,Cholesterol-free media + simvastatin (0.04 μM),[2]; [15],1.054
same,Complete Media,[2]; [16],0.9232
same,Difference,[2]; [7],−0.13
O=C(O)CCCN1CCC(O[C@@H](c2ccc(Cl)cc2)c2ccccn2)CC1 [Bepotastine (besilate)],Cholesterol-free,[1]; [4],1.237
same,Complete,"[1]; NCI-H292 cells, complete media",0.8985
same,Difference,[1]; [14],−0.34
same,Cholesterol-free media + simvastatin (0.04 μM),[2]; [5],1.245
same,Complete Media,[2]; [6],0.8639
same,Difference,[2]; [7],−0.38
CC(C)(N)CNC(=O)C[C@H]1CC[C@]2(CC1)OO[C@]1(O2)C2CC3CC(C2)CC1C3 [Arterolane],Difference,[1]; [17],−0.17
same,Cholesterol-free,[1]; [18],1.167
same,Complete,[1]; [19],0.9934
same,Cholesterol-free media + simvastatin (0.04 μM),[2]; [15],1.129
same,Complete Media,[2]; [16],1.314
same,Difference,[2]; [13],0.19
CC(C)Oc1ccc2c(=O)c(-c3ccccc3)coc2c1 [Ipriflavone],Cholesterol-free,[1]; [20],0.6871
same,Complete,[1]; [21],1.135
same,Difference,[1]; [22],0.45
same,Cholesterol-free media + simvastatin (0.04 μM),[2]; [23],1.029
same,Complete Media,[2]; [24],1.016
same,Difference,[2]; [25],−0.01
CC(C)C[C@H](NC(=O)CNC(=O)c1cc(Cl)ccc1Cl)B1OC(=O)C(CC(=O)O)(CC(=O)O)O1 [Ixazomib citrate],Cholesterol-free,[1]; [20],−0.00597
same,Complete,[1]; [21],0.1018
same,Difference,[1]; [22],0.11
same,Cholesterol-free media + simvastatin (0.04 μM),[2]; [15],0.141
same,Complete Media,[2]; [16],0.02787
same,Difference,[2]; [7],−0.11
O=c1ccc2ccc(O)c(O)c2o1 [Daphnetin],Difference,[1]; [3],−0.27
same,Cholesterol-free,[1]; [4],1.207
same,Complete,"[1]; NCI-H292 cells, complete media",0.9359
same,Cholesterol-free media + simvastatin (0.04 μM),[2]; [26],1.124
same,Complete Media,[2]; drug in complete media,0.9139
same,Difference,[2]; [7],−0.21
CCCC(=O)O[C@]1(C(=O)CCl)[C@H](C)C[C@@H]2[C@@H]3CCC4=CC(=O)C=C[C@]4(C)[C@]3(F)C(=O)C[C@@]21C [Clobetasone butyrate],Difference,[1]; [27],−0.18
same,Cholesterol-free,[1]; [18],0.6832
same,Complete,[1]; [19],0.5004
same,Cholesterol-free media + simvastatin (0.04 μM),"[2]; cholesterol-free media with simvastatin 0.04 μM, […]",0.5437
same,Complete Media,"[2]; complete media, […]",0.5699
same,Difference,[2]; [28],0.03
Sulconazole (nitrate),Difference,[1]; [3],0.04
same,Cholesterol-free,[1]; [20],0.9221
same,Complete,[1]; [21],0.9667
same,Cholesterol-free media + simvastatin (0.04 μM),[2]; [15],0.3022
same,Complete Media,[2]; [16],0.9753
same,Difference,[2]; [13],0.67
N#Cc1ccnc(N2C(=O)CC[C@H]2C(=O)N(c2cncc(F)c2)[C@H](C(=O)NC2CC(F)(F)C2)c2ccccc2Cl)c1 [Ivosidenib],Difference,[1]; [17],−0.17
same,Cholesterol-free,[1]; [18],0.9061
same,Complete,[1]; [19],0.7326
same,Cholesterol-free media + simvastatin (0.04 μM),[2]; [11],0.8742
same,Complete Media,[2]; [12],0.9265
same,Difference,[2]; [13],0.05
CN1C(=O)C[C@@H](C(=O)N[C@@H](Cc2c[nH]cn2)C(=O)N2CCC[C@H]2C(N)=O)NC1=O [Taltirelin],Cholesterol-free,[1]; [4],1.305
same,Complete,"[1]; NCI-H292 cells, complete media",0.871
same,Difference,"[1]; complete vs cholesterol-free media, […]",−0.43
same,Cholesterol-free media + simvastatin (0.04 μM),[2]; [26],1.39
same,Difference,[2]; [29],−0.24
CN(c1nccc(=O)[nH]1)C1CCN(c2nc3ccccc3n2Cc2ccc(F)cc2)CC1 [Mizolastine],Difference,[1]; [17],−0.17
same,Cholesterol-free,[1]; [18],1.446
same,Complete,[1]; [19],1.273
same,Cholesterol-free media + simvastatin (0.04 μM),[2]; [15],0.9531
same,Complete Media,[2]; [16],0.8007
same,Difference,[2]; [7],−0.15
NCC[C@H](O)C(=O)N[C@@H]1C[C@H](N)[C@@H](O[C@H]2O[C@H](CN)[C@@H](O)[C@H](O)[C@H]2O)[C@H](O)[C@H]1O[C@H]1O[C@H](CO)[C@@H](O)[C@H](N)[C@H]1O [Amikacin (disulfate)],Difference,[1]; [27],−0.09
same,Cholesterol-free,[1]; [18],0.9569
same,Complete,[1]; [19],0.8685
same,Cholesterol-free media + simvastatin (0.04 μM),[2]; [15],0.8392
same,Complete Media,[2]; [16],1.245
same,Difference,[2]; [28],0.41
CC1=NN(c2ccc(C)c(C)c2)C(=O)/C1=N\Nc1cccc(-c2cccc(C(=O)O)c2)c1O [Eltrombopag (Olamine)],Difference,[1]; [8],−0.96
same,Cholesterol-free,[1]; [9],1.745
same,Complete,[1]; [10],0.7856
same,Cholesterol-free media + simvastatin (0.04 μM),[2]; [23],1.098
same,Complete Media,[2]; [24],1.058
same,Difference,[2]; [25],−0.04
CCCN(CCC)C(=O)C(CCC(=O)O)NC(=O)c1ccccc1 (centres unmarked) [Proglumide],Cholesterol-free,[1]; [20],0.7154
same,Complete,[1]; [21],1.407
same,Difference,[1]; [22],0.69
same,Cholesterol-free media + simvastatin (0.04 μM),[2]; [23],0.8053
same,Complete Media,[2]; [24],0.7842
same,Difference,[2]; [25],−0.02
COc1ccc2cc1Oc1ccc(cc1)C[C@H]1c3cc(c(OC)cc3CCN1C)Oc1c(OC)c(OC)cc3c1[C@H](C2)N(C)CC3 [Tetrandrine],Cholesterol-free,[1]; [20],0.9522
same,Complete,[1]; [21],1.143
same,Difference,[1]; [22],0.19
same,Cholesterol-free media + simvastatin (0.04 μM),[2]; [26],1.133
same,Complete Media,[2]; drug in complete media,0.9661
same,Difference,[2]; [7],−0.17
CCC(=O)O[C@H](CC(=O)O)C[N+](C)(C)C [Levocarnitine propionate (hydrochloride)],Difference,[1]; [3],−0.30
same,Cholesterol-free,[1]; [4],1.256
same,Complete,"[1]; NCI-H292 cells, complete media",0.9514
same,Cholesterol-free media + simvastatin (0.04 μM),[2]; [23],1.106
same,Complete Media,[2]; [24],1.114
same,Difference,[2]; [25],0.01
C1N2CN3CN1CN(C2)C3.O=C(O)CNC(=O)c1ccccc1 [Methenamine (hippurate)],Difference,[1]; [3],0.05
same,Cholesterol-free,[1]; [20],0.09528
same,Complete,[1]; [21],0.1431
same,Cholesterol-free media + simvastatin (0.04 μM),[2]; [23],0.3855
same,Complete Media,[2]; [24],0.3286
same,Difference,[2]; [25],−0.06
NCC1(CC(=O)O)CCCCC1 [Gabapentin],Difference,[1]; [27],−0.30
same,Cholesterol-free,[1]; [4],1.237
same,Complete,"[1]; NCI-H292 cells, complete media",0.9357
same,Cholesterol-free media + simvastatin (0.04 μM),[2]; [15],1.126
same,Complete Media,[2]; [16],1.036
same,Difference,[2]; [29],−0.09
O=C(O)Cc1ccc(-c2ccccc2)cc1 [Felbinac],Cholesterol-free,[1]; [20],0.7335
same,Complete,[1]; [21],1.335
same,Difference,[1]; [22],0.60
same,Cholesterol-free media + simvastatin (0.04 μM),[2]; [23],1.215
same,Complete Media,[2]; [24],1.199
same,Difference,[2]; [25],−0.02
Tofacitinib (citrate),Difference,[1]; [3],−0.26
same,Cholesterol-free,[1]; [4],0.8106
same,Complete,"[1]; NCI-H292 cells, complete media",0.5473
same,Cholesterol-free media + simvastatin (0.04 μM),[2]; [26],0.9122
same,Complete Media,[2]; drug in complete media,0.6806
same,Difference,[2]; [7],−0.23
